Assay results reported in PubChem BioAssay AID2305 (GlaxoSmithKline (GSK), 2010).

Test system: P. falciparum 3D7 growth, pLDH absorbance
Assay: P. falciparum 3D7 growth inhibition, dose response, strain 3D7 (AID 2305)

| SMILES | IC50 |
| --- | --- |
| CCC(C)(C)c1ccc(Oc2ccc(NC(=O)Nc3ccc(Cl)c(Cl)c3)cc2)cc1 | 700 nM |
| COc1cccc(OC)c1CN1CCC(N(C)CCCCCCCCN2CCC(OC(=O)Nc3ccccc3-c3ccccc3)CC2)CC1 | 460 nM |
| CN(C)CC1CCCN1Cc1ccccc1-c1cnn(C)c(=O)c1Oc1cccc(C#N)c1 (configuration not stated) | 1340 nM |
| O=C(/C=C/c1ccc(Cl)c(Cl)c1)NCCCCCN1CCC(NC(=O)Nc2cc(Cl)cc(Cl)c2)CC1 | 720 nM |
| COc1cccc2cc(C(=O)N[C@@H](CC(C)C)C(=O)N[C@H](/C=N/N3C(=O)CN(Cc4ccccc4)C3=O)CCc3ccccc3)oc12 | 620 nM |
| Cn1nc(-c2ccccc2F)c2cc(C(=O)Nc3cccnc3)sc21 | 810 nM |
| CC(C(=O)N1CCCC1)N1CCN(C(c2ccccc2)c2ccccc2)CC1 (configuration not stated) | 1100 nM |
| N#Cc1ccc2c(c1)CN(C1CCC(NC(=O)c3cc(-c4ccc(Cl)cc4)cs3)CC1)CCC2 (configuration not stated) | 960 nM |
| CC(C)(C)c1ccc2nc(-c3ccc(/C=C/C(=O)NCc4ccc(Cl)c(Cl)c4)cc3)[nH]c2c1 | 40 nM |
| Cc1cccc2c3c([nH]c12)C1(CCN(Cc2ccccc2)CC1)NC(C(=O)NCc1ccccc1)C3 (configuration not stated) | 1370 nM |
| Cc1ccccc1CNc1noc(-c2c(F)cccc2Cl)n1 | 720 nM |
| COc1ccc2nccc([C@@H](O)CN3CCC(NCc4ccc5c(c4)NC(=O)CO5)CC3)c2c1 | 1660 nM |
| CN1CCN(CCCN(Cc2ccc(-c3cccc(CNCc4ccc5c(c4)OCO5)c3)cc2)C(=O)NC2CCCCC2)CC1 | 990 nM |
| CCOc1cc(C(=O)NCc2cc(Cl)cc(Cl)c2)ccc1-c1nc2ccc(Cl)cc2[nH]1 | 730 nM |
| CNC(=O)c1cnc(Nc2ccc(N3CCOCC3)cc2)nc1Nc1cccc(O)c1 | 810 nM |
| Cc1ccc(F)cc1S(=O)(=O)N1CCCCC(c2ccc(C(F)(F)F)cc2)=N1 | 940 nM |
| CC(C)C[C@H](Nc1ccnc(NCC2CCCCC2)n1)C(=O)Nc1ccccc1 | 1430 nM |
| COc1ccc2nccc([C@@H](O)CN3CCC(NCc4ccc5c(c4)NC(=O)C(C)S5)CC3)c2c1 (some centres not stated) | 200 nM |
| O=C(NC1CCCCC1)c1ccc(O)c(-c2cccc(C(F)(F)F)c2)c1 | 710 nM |
| Cc1cc(CN2CC[C@H](NC(=O)c3ccc(Cl)c(Cl)c3)C2)ccc1OCCN1CCNCC1 | 940 nM |
| CCC(C)CN1CCN(c2ccc(NC(=O)c3cccs3)cc2)CC1C (configuration not stated) | 660 nM |
| CCCCN(Cc1cnccc1-c1ccc(Br)cc1)c1ccc(C(O)(C(F)(F)F)C(F)(F)F)cc1 | 1060 nM |
| c1ccc(-c2ccc3c(Nc4ccc5[nH]ccc5c4)ccnc3c2)nc1 | 940 nM |
| NC(=NCCc1ccccc1Cl)c1ccc2ccccc2c1 | 1630 nM |
| CC(Cc1ccc(OCCCCOc2ccccc2)cc1)NCCCc1nc2ccccc2[nH]1 (configuration not stated) | 980 nM |

| SMILES | IC50 |
| --- | --- |
| O=C(Cc1ccc(NC(=O)c2ccc(O)c(-c3ccc(Cl)c(Cl)c3)c2)cc1)NCCc1ccc(Cl)c(Cl)c1 | 720 nM |
| CC1=C(C(=O)Nc2cc3cn[nH]c3cc2F)C(c2ccc(Cl)c(NS(C)(=O)=O)c2)CC(=O)N1 (configuration not stated) | 480 nM |
| CC(CN(C)C)C(=O)Nc1cccc(-c2ccc(-c3nc4ccccc4[nH]3)s2)c1 (configuration not stated) | 740 nM |
| Nc1nc(N)c2c(ccc3[nH]c(-c4ccccc4Cl)nc32)n1 | 230 nM |
| Cc1ccc(C)c2sc(N(CCCn3ccnc3)C(=O)c3ccco3)nc12 | 870 nM |
| CCc1nc2nc(C)cc(Nc3ccc4c(c3)OCCO4)n2n1 | 1290 nM |
| NC1CCN(Cc2cccc(-c3ccc(-c4nc5ccccc5[nH]4)cc3)c2)C1 (configuration not stated) | 830 nM |
| O=C(Cc1cccc(Cl)c1)Nc1cccc(-c2c[nH]c3nc(Nc4ccccc4)ncc23)c1 | 680 nM |
| CC(=O)N1CCN(c2ccc(NC(=O)c3oc(-c4ccccc4)nc3C(F)(F)F)cn2)CC1 | 840 nM |
| Cc1ccc(C(=O)c2oc3ccc4c(C)cc(=O)oc4c3c2C)cc1 | 1030 nM |
| Cc1[nH]c2ccccc2c1C1=CCN(CCCCC2(C)C(=O)Nc3cccc(F)c32)CC1 (configuration not stated) | 360 nM |
| Nc1nc(N)c2c(n1)CCc1cc(Br)ccc1-2 | 1130 nM |
| Cc1cccc2[nH]c(-c3ccc(-c4ccc(NC(=O)CN5CCN(C)CC5)cc4)s3)nc12 | 1020 nM |
| O=C(/C=C/c1ccc(Cl)c(Cl)c1)NCCCCCN1CCN(C(=O)Nc2ccc(OC(F)F)cc2)CC1 | 950 nM |
| COC(=O)c1cccc(CNCc2cccc(-c3cccc(-c4nc5c(C)cccc5[nH]4)c3)c2)c1 | 190 nM |
| O=C(NC1CCCCC1)N(Cc1ccccc1-c1ccc(CNCCc2ccccc2)cc1)C1CCN(Cc2ccccc2)CC1 | 930 nM |
| O=C(Nc1ccc(Cl)cc1C(=O)Nc1ccncc1)c1ccc(Cl)cc1Cl | 610 nM |
| Cc1cc(O)c(CN(C)Cc2ccc3c(c2)OCO3)cc1C(C)C | 740 nM |
| O=C(/C=C/C=C/c1ccccc1)NC1CCC(CN2CCC(c3c[nH]c4ccccc34)CC2)CC1 (configuration not stated) | 870 nM |
| CCNc1cc(C)nc(Nc2ccc(NS(=O)(=O)c3ccccc3)cc2)n1 | 790 nM |
| O=C(NC1CCN(Cc2ccccc2)CC1)c1cccc(-c2nc3ccc(Cl)cc3[nH]2)c1 | 860 nM |
| CCc1c(CCNCCCCCCNCc2ccc3c(c2CC)OCO3)ccc(OC)c1OC | 250 nM |
| N#Cc1cccc(NC(=O)Nc2ccc(-c3ccc(-c4nc5ccc(C(F)(F)F)cc5[nH]4)cc3)cc2)c1 | 140 nM |
| COc1ccc(CN(C)CCOc2ccc(NC(=O)c3cccc4c(=O)c5cc(SC)ccc5[nH]c34)cc2)cc1OC | 880 nM |
| O=C(COc1ccc(C(=O)c2ccccc2)cc1)Nc1nccs1 | 890 nM |

| SMILES | IC50 |
| --- | --- |
| CNC(=O)c1cnc(Nc2ccc(N3CCN(C)CC3)cc2)nc1Nc1cccc(OC)c1 | 750 nM |
| N#Cc1cccc(NC(=O)Nc2ccc3c(c2)CCN(C2CCC2)CC3)c1 | 840 nM |
| FC(F)(F)c1ccc(-c2ccc(CNC3CCN(CCN4CCOCC4)CC3)cc2)cc1 | 760 nM |
| O=C(Nc1cc2cc(-c3ccc(CN4CCCCC4)cc3)ccc2n2cnnc12)NC1CCCC1 | 1520 nM |
| Cc1cccc2[nH]c(-c3cccc(-c4cccc(CNCCCN5CCCC5=O)c4)c3)nc12 | 740 nM |
| Cc1ccc(O)c(C(=O)c2cnc3c(c2)c(-c2ccc(F)cc2)c(C#N)c(=O)n3C)c1 | 970 nM |
| O=C(NC1CCN(Cc2ccccc2O)C1)c1ccc(-c2ccccc2)cc1 (configuration not stated) | 840 nM |
| CCc1ccc(CN2CCC(NC(=O)c3ccc(-c4ccc(N(C)C)cc4)s3)CC2)cc1 | 1210 nM |
| Cc1noc(C)c1-c1cccc(CNCc2ccc(-c3ccc(-c4nc5ccc(C(F)(F)F)cc5[nH]4)cc3)cc2)c1 | 170 nM |
| O=C(Nc1cccc(CCNCc2ccccc2)c1)Nc1cccc2ccccc12 | 730 nM |
| Cc1cc(C(=O)N(Cc2ccc(-c3ccc(CNCCc4ccc(S(C)(=O)=O)cc4)cn3)cc2)C(C)CN(C)C)ccc1[N+](=O)[O-] (configuration not stated) | 790 nM |
| O=C(/C=C/c1ccc(Cl)c(Cl)c1)NCCCCCN1CCC(C(=O)Nc2ccc(Cl)c(Cl)c2)CC1 | 640 nM |
| Cc1[nH]c2c(C)cccc2c1C1CCN(CCC2CCN(C(=O)/C=C/c3ccc(Cl)c(Cl)c3)CC2)CC1 | 640 nM |
| CC(=O)Nc1ccc(OCCN(Cc2ccccc2C(F)(F)F)c2ccc(C#N)c(C(F)(F)F)c2)c(Cl)c1 | 620 nM |
| CCc1nc2ccc(C(=O)OC)nc2n1Cc1ccc2oc(-c3ccccc3N)c(Br)c2c1 | 820 nM |
| CC(C)C1=NCc2ccc([N+](=O)[O-])cc2C(=O)N1 | 150 nM |
| CC(=O)Nc1ccc(-c2nc3ccc(-c4nc5ccc(NC(C)=O)cc5[nH]4)cc3[nH]2)cc1 | 240 nM |
| CCOCc1cnc(C)nc1CNC(=O)c1c(C)[nH]c2ccc(C)cc12 | 1010 nM |
| COc1cc(NC(=O)N2CCc3ccc(OCCN(C(C)C)C(C)C)cc32)cc(C(F)(F)F)c1 | 190 nM |
| COc1ccc2nccc([C@@H](O)CN3CCC(NC(=O)C(c4cc5ccccc5o4)N4CCN(c5ccccc5)CC4)CC3)c2c1 (some centres not stated) | 240 nM |
| CCc1c(C)nc(-n2nc(C)cc2NC(=O)c2ccc(OC)cc2OC)[nH]c1=O | 830 nM |
| O=C(Nc1cc(Cl)ccc1O)c1ccc(Oc2ccc(C(=O)Nc3cc(Cl)ccc3O)cc2)cc1 | 920 nM |
| COc1cccc(N(CCCN2C(=O)c3cccc4cccc(c34)C2=O)C(=O)c2ccccc2C)c1 | 790 nM |
| c1ccc(Oc2ccc(Nc3ccnc4cc(-c5ccc(CN6CCCCC6)o5)ccc34)cc2)nc1 | 330 nM |
| COc1ccccc1CCNc1nc(C)cc(N[C@@H](CC(C)C)C(=O)NCc2cccs2)n1 | 790 nM |

| SMILES | IC50 |
| --- | --- |
| CCN1CCN(CCCNc2c3ccc(Cl)cc3nc3ccc(O)cc23)CC1 | 570 nM |
| Fc1ccc2nc(-c3cccc(-c4ccc(CN5CCC(CCN6CCCCC6)CC5)cc4)c3)[nH]c2c1 | 140 nM |
| Cc1cc(NN=Cc2ccc(F)cc2)c2ccc(F)cc2n1 | 950 nM |
| Clc1ccc(CNCCCCCCCNCc2ccc(Cl)c(Cl)c2)cc1Cl | 370 nM |
| O=C(N[C@H]1CCCC[C@H]1C(=O)O)c1ccccc1 | 780 nM |
| CC(C)(NCc1ccc(OC(F)(F)F)cc1)c1nc(-c2ccc(Cl)c(O)c2)c(-c2ccncc2)[nH]1 | 940 nM |
| COc1ccc2ncc(Cl)c(NCC3(O)CCC(NCc4ccc5c(n4)NC(=O)CS5)CC3)c2n1 (configuration not stated) | 600 nM |
| COc1ccc2nccc([C@@H](O)CN3CCC(NC(=O)C(c4cc5ccccc5s4)N4CCN(c5ccccc5OC)CC4)CC3)c2c1 (some centres not stated) | 160 nM |
| CC(=O)NC(c1cccs1)c1cc(Cl)c2cccnc2c1O (configuration not stated) | 320 nM |
| Cc1ccc(CNC(=O)[C@H](Cc2ccccc2)Nc2cc(C)nc(NCC3CCCCC3)n2)cc1 | 900 nM |
| CCCC1(NC[C@@H](O)[C@H](Cc2ccccc2)NC(=O)c2cc(NCC)cc(N3CCCCS3(=O)=O)c2)CCCCC1 | 250 nM |
| CN(C)c1ccc(NC2=NC(C)(C)N=C(N)N2)cc1 | 220 nM |
| O=C(Nc1ccc(OC2CCN(Cc3ccc(F)cc3)C2)c(Cl)c1)c1ccsc1 (configuration not stated) | 540 nM |
| Oc1ccc(Cl)cc1CN1CCC(CCOC(c2ccccc2)c2ccc(Cl)cc2)CC1 (configuration not stated) | 390 nM |
| CC(NC(=O)c1ccc(O)c(-c2ccc(Cl)c(Cl)c2)c1)C(=O)NCCN1CCOCC1 (configuration not stated) | 960 nM |
| Clc1ccc2c(Cl)c(CNCCCNc3nc4ccccc4[nH]3)[nH]c2c1 | 220 nM |
| c1cncc(-c2cccc(CNc3nccc(Nc4ccc(OCCN5CCOCC5)cc4)n3)c2)c1 | 1060 nM |
| O=C(Nc1ccc(Cl)cc1)Nc1ccc(-c2cccc(-c3nc4ccc(F)cc4[nH]3)c2)cc1 | 290 nM |
| CCCn1c(Sc2ccc(C#N)c([N+](=O)[O-])c2)nnc1-c1ccc(Cl)cc1 | 540 nM |
| CCCc1ccc(NC(=O)c2ccc(CN3CCCN(CC4CCCCC4)CC3)cc2)cc1 | 520 nM |
| COc1ccccc1CCNc1nc(C)cc(N[C@@H](Cc2ccccc2)C(=O)NCc2cccs2)n1 | 630 nM |
| COc1cc(-c2nc3ccc(N4CCN(C)CC4)cc3[nH]2)cc(OC)c1OC | 1270 nM |
